Holding throughout (type): in vivo, mouse (C57BL/6)
For assay [1], the system named is MALA model mice. The experiment in a line: Survival analysis in metformin-associated lactic acidosis (MALA) model mice (Test Example 1). The following applies: for survival rate as compared to vehicle alone: 30 mg/kg oral. An excerpt:
(§1) All mice used in Examples were 7- to 13-week-old wild-type C57BL/6 male mice obtained from CLEA Japan, Inc. The mice were fed ad libitum on a 12-hour light/12-hour dark cycle in a specific pathogen-free facility.
(§2) In statistical analysis in Examples, power calculation for determining a sample size was not performed. Mice that died of lactic acidosis before treatment with a vehicle or Compound A were excluded from mice to be analyzed. For a comparison of normally distributed data between groups, analysis was performed using unpaired Student's t-test. A difference in survival rate was analyzed by log-rank (Mantel-Cox) test through use of GraphPad Prism software.
In the morning and evening of day 1, and the morning of day 2, 0.25 mg/g body weight of metformin dissolved in distilled water was orally administered to 8-week-old wild-type C57BL/6 male mice to produce MALA model mice. Immediately after the metformin administration to the model mice on day 2, a vehicle (0.5% methyl cellulose; 64625; Sigma-Aldrich) or 30 mg/kg body weight of Compound A (produced in Example 1) was orally administered. After 4 hours from the oral administration, the model mice were administered with 0.4 mg/g body weight of lactic acid dissolved in 0.9% NaCl by intraperitoneal injection. Kaplan-Meier survival analysis was performed for those mice.

Assay [2] concerns MALA-complicated CKD model mice. The experiment in a line: Survival analysis in MALA-complicated chronic kidney disease (CKD) model mice, Compound A (Test Example 2). The following applies: for survival rate as compared to vehicle alone: 10 mg/kg oral.
From the text: as §1, §2
(§3) 7-Week-old wild-type C57BL/6 male mice were fed ad libitum with a standard or 0.2% adenine feed for 6 weeks. The population fed with the 0.2% adenine feed was used as CKD model mice.
(§4) Further, the CKD model mice were administered with 0.5 mg/g body weight of metformin on day 1 to produce a MALA-complicated CKD mouse model. After 4 hours from the metformin administration, a whole blood sample (5 μl) was collected from the tail vein, and a blood lactate level was measured using Lactate Pro Test Meter and Lactate Pro Test Strip (Cycle Classic Imports). […] Kaplan-Meier survival analysis was performed for those mice.

Assay [3] has the same test system. The experiment in a line: Survival analysis in MALA-complicated chronic kidney disease (CKD) model mice, Compound B (Test Example 3). The following applies: for survival rate as compared to vehicle alone: 30 mg/kg oral.
From the text: as §1, §2, §3, §4

This is an account of results in patent publication US20190151315A1, “Drug For Preventing Or Treating Lactic Acidosis” (KEIO UNIVERSITY, priority 2016, published 2019).

Turning to `Cc1nc(CC2CCN(c3ccc(-c4ccc(CO)cc4)cc3)CC2)nc(C(=O)NCC(=O)O)c1O` [Compound A, ({[5-hydroxy-2-({1-[4′-(hydroxymethyl)biphenyl-4-yl]piperidin-4-yl}methyl)-6-methylpyrimidin-4-yl]carbonyl}amino)acetic acid], the “survival rate as compared to vehicle alone (Kaplan-Meier, FIG. 1)” value in assay [1] (30 mg/kg body weight oral, single, metformin 0.25 mg/g x3, lactic acid 0.4 mg/g i.p. after 4 hours) was “significantly high survival rate”. Moreover, the “survival rate as compared to vehicle alone” value in assay [1] (after 24 hours) is “about 1.8 fold”; in assay [1] (after 48 hours), “about 2.8 fold”; in assay [1] (after 72 hours) it was “about 2.6 fold”; in assay [1] (after 96 hours) it was “about 2.4 fold”; in assay [1] (after 120 hours), “about 2.6 fold”; in assay [2] (after 24 hours), “about 2.9 fold”. The “survival rate as compared to vehicle alone” value in assay [2] (after 48 hours) and in assay [2] (after 72 hours) was “about 5.8 fold” each time. The “survival rate as compared to vehicle alone (Kaplan-Meier, FIG. 2)” value in assay [2] (10 mg/kg body weight oral, single, mice with blood lactate more than 8 mM after metformin 0.5 mg/g) is reported as “significantly high survival rate”.
Take `Cc1nc(CC2CCN(c3ccc(-c4ccc(C[C@H](C)O)cc4)cc3)CC2)nc(C(=O)NCC(=O)O)c1O` [Compound B, [({5-hydroxy-2-[(1-{4′-[(2S)-2-hydroxypropyl]biphenyl-4-yl}piperidin-4-yl)methyl]-6-methylpyrimidin-4-yl}carbonyl)amino]acetic acid]: the “survival rate as compared to vehicle alone (Kaplan-Meier, FIG. 3)” value in assay [3] (30 mg/kg body weight oral, single, mice with blood lactate more than 8 mM after metformin 0.5 mg/g) was “significantly high survival rate”. The entries for the “survival rate as compared to vehicle alone” value in assay [3] (after 24 hours), in assay [3] (after 48 hours) and in assay [3] (after 72 hours) were “about 1.7 fold”, “about 2.0 fold” and “about 2.0 fold”, respectively.
